The target in this assay is HSP27 (Homo sapiens, UniProt P04792). The assay can be described thus: Capillary electrophoresis of heat-denatured citrate synthase protein precipitates. It is filed as biochemical. The note with it: for Efficacy compared with BVDU: 10 μmol/L vs 750 μmol/L BVDU, 43° C. for 70 minutes (Table 3); for Rel. quantity of protein prec. CS: 10 μmol/L, 43° C. for 70 minutes, relative to 750 μmol/L BVDU = 1 (Table 3). Here is the method:
Since the heat-denatured protein aggregates of the citrate synthase from Example 1 are not water-soluble, these can be separated completely from the supernatant by means of centrifugation at room temperature at 16,000×g, 10 min. By using capillary electrophoresis, the compositions of the separated precipitates can be shown and quantified. The relative quantity of protein of precipitated citrate synthase serves as a measure of the efficacy of the test substances.
In each case, 481 nmol/L HSP27 and 1.44 μmol/L citrate synthase in 40 mmol/L HEPES buffer, pH 7.4, were employed. The relative quantity of protein of the precipitated citrate synthase in each case was normalized using a defined quantity of BSA as internal standard. The relative quantity of protein that precipitated when using 750 μmol/L BVDU was set at 1. The other test substances (2 representatives of phenothiazine derivatives of general formula (V), 2 representatives of purine derivatives of formula (I) or (II)) were each employed at a concentration of 10 μmol/L.
Since the heat-denatured protein aggregates of the citrate synthase from Example 2 are not water-soluble, these can be separated completely from the supernatant by means of centrifugation at room temperature at 16,000×g, 10 min. By using capillary electrophoresis, the compositions of the separated precipitates can be shown and quantified. The relative quantity of protein of precipitated citrate synthase serves as a measure of the efficacy of the test substances.
In each case, 481 nM HSP27 and 1.44 μmol/L citrate synthase in 40 mmol/L HEPES buffer, pH 7.4, were employed. The relative quantity of protein of the precipitated citrate synthase in each case was normalized using a defined quantity of BSA as internal standard. The relative quantity of protein that precipitated when using 750 μmol/L BVDU was set at 1. The other test substances (2 representatives of phenothiazine derivatives of general formula (V), 2 representatives of thymine derivatives of formula (I) or (II)) were employed at a concentration of 10 μmol/L in each case.
Otherwise, the experiments were performed as described above: […]

Here are results for 27 compounds from patent publication US10940150B2, “Thymine derivatives and quinazoline-dione derivatives for the inhibition of HSP27” (TECHNISCHE UNIVERSITAET DRESDEN, priority 2014, dated 2021).

Chain of HSP27 (P04792 whole entry): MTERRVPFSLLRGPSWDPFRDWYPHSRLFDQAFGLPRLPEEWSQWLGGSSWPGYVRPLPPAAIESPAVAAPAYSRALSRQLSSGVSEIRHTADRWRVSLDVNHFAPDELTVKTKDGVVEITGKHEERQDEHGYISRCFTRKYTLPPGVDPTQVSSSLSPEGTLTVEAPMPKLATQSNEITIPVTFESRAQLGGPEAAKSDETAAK

Regarding `Cc1cn(C2C[C@H](n3cc(-c4cccc(Br)c4)nn3)[C@@H](CO)O2)c(=O)[nH]c1=O` (stereo partly drawn) [1-[(4S,5S)-4-[4-(3-Bromophenyl)-1H-1,2,3-triazol-1-yl]-5-(hydroxymethyl)oxolan-2-yl]-5-methyl-1,2,3,4-tetrahydropyrimidine-2,4-dione], the “Efficacy compared with BVDU” value is 60.88 x and the “Rel. quantity of protein prec. CS” value stood at 0.81.
Take `Cc1cn(C2C[C@H](n3cc(-c4ccc(Br)cc4)nn3)[C@@H](CO)O2)c(=O)[nH]c1=O` (stereo partly drawn) [1-[(4S,5S)-4-[4-(4-Bromophenyl)-1,2,3-triazol-1-yl]-5-(hydroxymethyl)oxolan-2-yl]-5-methyl-3H-pyrimidine-2,4-dione]: the “Efficacy compared with BVDU” value is 48.14 x and the “Rel. quantity of protein prec. CS” value worked out at 0.64.
The matching figures for `COc1ccc(-c2cn([C@H]3CC(n4cc(C)c(=O)[nH]c4=O)O[C@@H]3CO)nn2)cc1` (stereo partly drawn) [1-[(4S,5S)-5-(Hydroxymethyl)-4-[4-(4-methoxyphenyl)-1,2,3-triazol-1-yl]oxolan-2-yl]-5-methyl-3H-pyrimidine-2,4-dione]: 55.89 x and 0.75.
As for `CCCCc1cn([C@H]2C[C@H](n3cc(C)c(=O)[nH]c3=O)O[C@@H]2CO)nn1` [3′-(4-Butyl-1H-1,2,3-triazol-1-yl)-3′-deoxythymidine], the “Efficacy compared with BVDU” value worked out at 57.08 x and the “Rel. quantity of protein prec. CS” value turned out to be 0.76.
In the same order, the values of `CCCCCc1cn([C@H]2C[C@H](n3cc(C)c(=O)[nH]c3=O)O[C@@H]2CO)nn1` [3′-Deoxy-3′-(4-pentyl-1H-1,2,3-triazol-1-yl)thymidine] are 52.57 x and 0.70.
The matching figures for `Cc1cn([C@H]2C[C@H](n3cc(-c4ccccc4)nn3)[C@@H](CO)O2)c(=O)[nH]c1=O` [3′-Deoxy-3′-(4-phenyl-1H-1,2,3-triazol-1-yl)thymidine]: 59.07 x and 0.79.
The matching figures for `CCCc1cn([C@H]2C[C@H](n3cc(C)c(=O)[nH]c3=O)O[C@@H]2CO)nn1` [3′-Deoxy-3′-(4-propyl-1H-1,2,3-triazol-1-yl)thymidine]: 59.59 x and 0.79.
As for `Cc1cn([C@H]2C[C@H](n3cc(C(C)(C)C)nn3)[C@@H](CO)O2)c(=O)[nH]c1=O` [3′-Deoxy-3′-[4-(2-methyl-2-propanyl)-1H-1,2,3-triazol-1-yl]thymidine], the “Efficacy compared with BVDU” value was 46.01 x and the “Rel. quantity of protein prec. CS” value turned out to be 0.61.
On to `Cc1cn([C@H]2C[C@H](n3cc(CCc4ccccc4)nn3)[C@@H](CO)O2)c(=O)[nH]c1=O` [3′-Deoxy-3′-[4-(2-phenylethyl)-1H-1,2,3-triazol-1-yl]-thymidine], for which the “Efficacy compared with BVDU” value was determined as 55.67 x and the “Rel. quantity of protein prec. CS” value was determined as 0.74.
The matching figures for `Cc1cn([C@H]2C[C@H](n3cc(-c4ccccn4)nn3)[C@@H](CO)O2)c(=O)[nH]c1=O` [3′-Deoxy-3′-[4-(2-pyridinyl)-1H-1,2,3-triazol-1]-yl]thymidine]: 62.86 x and 0.84.
Take `Cc1cn([C@H]2C[C@H](n3cc(-c4ccc(Cl)c(Cl)c4)nn3)[C@@H](CO)O2)c(=O)[nH]c1=O` [3′-Deoxy-3′-[4-(3,4-dichlorophenyl)-1H-1,2,3-triazol-1-yl]-thymidine]: the “Efficacy compared with BVDU” value came to 64.21 x and the “Rel. quantity of protein prec. CS” value was found to be 0.86.
The matching figures for `Cc1cn([C@H]2C[C@H](n3cc(-c4ccc(F)cc4)nn3)[C@@H](CO)O2)c(=O)[nH]c1=O` [3′-Deoxy-3′-[4-(4-fluorophenyl)-1H-1,2,3-triazol-1-yl]-thymidine]: 49.69 x and 0.66.
As for `Cc1cn([C@H]2C[C@H](n3cc(-c4ccc(Cl)cc4)nn3)[C@@H](CO)O2)c(=O)[nH]c1=O` [3′-[4-(4-Chlorophenyl)-1H-1,2,3-triazol-1-yl]-3′-deoxythymidine], the “Efficacy compared with BVDU” value worked out at 50.53 x and the “Rel. quantity of protein prec. CS” value was determined as 0.67.
In the same order, the values of `Cc1cn([C@H]2C[C@H](n3cc(CC4CCCC4)nn3)[C@@H](CO)O2)c(=O)[nH]c1=O` [3′-[4-(Cyclopentylmethyl)-1H-1,2,3-triazol-1-yl]-3′-deoxythymidine] are 49.63 x and 0.66.
As to `Cc1cn(CCCCNC(=O)C(c2ccccc2)c2ccccc2)c(=O)[nH]c1=O` [N-[4-(5-Methyl-2,4-dioxo-3H-pyrimidin-1-yl)butyl]-2,2-diphenylacetamide], the “Efficacy compared with BVDU” value is given as 58.97 x and the “Rel. quantity of protein prec. CS” value came to 0.79.
In the same order, the values of `Cc1cn(CCCCNC(=O)Cc2ccc(-c3ccccc3)cc2)c(=O)[nH]c1=O` [N-[4-(5-Methyl-2,4-dioxo-3H-pyrimidin-1-yl)butyl]-2-(4-phenylphenyl)acetamide] are 50.52 x and 0.67.
In the same order, the values of `Cc1cn(CCCCNC(=O)Cc2ccc3ccccc3c2)c(=O)[nH]c1=O` [N-[4-(5-Methyl-2,4-dioxo-3H-pyrimidin-1-yl)butyl]-2-(naphthalen-2-yl)acetamide] are 56.36 x and 0.75.
In the same order, the values of `Cc1cn(CCCCNC(=O)C2c3ccccc3-c3ccccc32)c(=O)[nH]c1=O` [N-[4-(5-Methyl-2,4-dioxo-3H-pyrimidin-1-yl)butyl]-9H-fluorene-9-carboxamide] are 43.30 x and 0.58.
Consider `Cc1cn(CCCCNC(=O)C2c3ccccc3Oc3ccccc32)c(=O)[nH]c1=O` [N-[4-(5-Methyl-2,4-dioxo-3H-pyrimidin-1-yl)butyl]-9H-xanthene-9-carboxamide], for which the “Efficacy compared with BVDU” value came out at 51.16 x and the “Rel. quantity of protein prec. CS” value was 0.68.
In the same order, the values of `O=C(Cc1ccc(-c2ccccc2)cc1)NC/C=C\Cn1ccc(=O)[nH]c1=O` [N-[(2Z)-4-(2,4-Dioxo-3H-pyrimidin-1-yl)but-2-en-1-yl]-2-(4-phenylphenyl)acetamide] are 66.15 x and 0.88.
The matching figures for `O=C(Cc1ccc2ccccc2c1)NC/C=C\Cn1ccc(=O)[nH]c1=O` [N-[(2Z)-4-(2,4-Dioxo-3H-pyrimidin-1-yl)but-2-en-1-yl]-2-(naphthalen-2-yl)acetamide]: 86.25 x and 1.15.
As to `O=C(NC/C=C\Cn1ccc(=O)[nH]c1=O)C1c2ccccc2OC2C=CC=CC21` (stereo not drawn) [N-[(2Z)-4-(2,4-Dioxo-3H-pyrimidin-1-yl)but-2-en-1-yl]-9,9a-dihydro-4aH-xanthene-9-carboxamide], the “Efficacy compared with BVDU” value is on record as 63.38 x and the “Rel. quantity of protein prec. CS” value stood at 0.85.
In the same order, the values of `Cc1cn(C/C=C\CNC(=O)C(c2ccccc2)c2ccccc2)c(=O)[nH]c1=O` [N-[(2Z)-4-(5-Methyl-2,4-dioxo-3H-pyrimidin-1-yl)but-2-en-1-yl]-2,2-diphenylacetamide] are 61.19 x and 0.82.
For `Cc1cn(C/C=C\CNC(=O)Cc2cccc3ccccc23)c(=O)[nH]c1=O` [N-[(2Z)-4-(5-Methyl-2,4-dioxo-3H-pyrimidin-1-yl)but-2-en-1-yl]-2-(naphthalen-1-yl)acetamide], the “Efficacy compared with BVDU” value came out at 60.44 x and the “Rel. quantity of protein prec. CS” value worked out at 0.81.
In the same order, the values of `Cc1cn(C/C=C\CNC(=O)Cc2ccc3ccccc3c2)c(=O)[nH]c1=O` [N-[(2Z)-4-(5-Methyl-2,4-dioxo-3H-pyrimidin-1-yl)but-2-en-1-yl]-2-(naphthalen-2-yl)acetamide] are 62.51 x and 0.83.
The matching figures for `Cc1cn(C/C=C\CNC(=O)C2c3ccccc3-c3ccccc32)c(=O)[nH]c1=O` [N-[(2Z)-4-(5-Methyl-2,4-dioxo-3H-pyrimidin-1-yl)but-2-en-1-yl]-9H-fluorene-9-carboxamide]: 64.31 x and 0.86.
For `Cc1cn(C/C=C\CNC(=O)c2cccc3ccccc23)c(=O)[nH]c1=O` [N-[(2Z)-4-(5-Methyl-2,4-dioxo-3H-pyrimidin-1-yl)but-2-en-1-yl]naphthalene-1-carboxamide], the “Efficacy compared with BVDU” value is on record as 58.73 x and the “Rel. quantity of protein prec. CS” value stood at 0.78.
